We go through one molecule from BindingDB's records for doi:10.1021/jm000130i (Duquesne University, 2000).

One assay deals with Dihydrofolate reductase (Lacticaseibacillus casei, UniProt P00381). Kind of assay: Inhibitory concentration against Lactobacillus casei Dihydrofolate reductase.
Assay [1] has as its target T1, Bifunctional dihydrofolate reductase-thymidylate synthase (Toxoplasma gondii, UniProt Q07422).
T1 sequence (Q07422 whole entry): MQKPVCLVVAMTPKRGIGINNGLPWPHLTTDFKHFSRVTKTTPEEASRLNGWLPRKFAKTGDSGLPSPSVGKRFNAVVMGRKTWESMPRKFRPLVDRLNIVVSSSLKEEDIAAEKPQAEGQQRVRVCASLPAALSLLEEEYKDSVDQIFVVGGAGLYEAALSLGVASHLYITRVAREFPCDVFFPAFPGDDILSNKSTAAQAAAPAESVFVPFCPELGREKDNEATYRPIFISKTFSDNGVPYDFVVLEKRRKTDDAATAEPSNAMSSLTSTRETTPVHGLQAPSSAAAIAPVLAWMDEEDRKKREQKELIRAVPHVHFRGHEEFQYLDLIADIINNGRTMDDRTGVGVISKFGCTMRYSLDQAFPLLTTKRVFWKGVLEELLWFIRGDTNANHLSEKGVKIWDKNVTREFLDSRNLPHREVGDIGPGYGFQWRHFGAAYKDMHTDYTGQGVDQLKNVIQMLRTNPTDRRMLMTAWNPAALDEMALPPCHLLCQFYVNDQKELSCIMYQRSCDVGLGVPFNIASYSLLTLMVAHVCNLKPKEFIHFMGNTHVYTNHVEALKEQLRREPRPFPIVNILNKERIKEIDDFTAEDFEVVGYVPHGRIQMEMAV
Kind of assay: Inhibitory concentration against Toxoplasma gondii Dihydrofolate reductase.

SMILES strings stand for the structures.

Dihydrofolate reductase, sequence (P00381 whole entry): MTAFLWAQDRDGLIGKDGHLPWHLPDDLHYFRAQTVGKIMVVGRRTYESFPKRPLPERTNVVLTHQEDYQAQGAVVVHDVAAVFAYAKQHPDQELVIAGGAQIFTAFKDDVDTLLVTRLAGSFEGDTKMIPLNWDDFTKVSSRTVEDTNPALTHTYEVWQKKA

With `C/C(=C\c1coc2nc(N)nc(N)c12)c1ccc(C(=O)N[C@@H](CCC(=O)O)C(=O)O)cc1`, the IC50 (against Dihydrofolate reductase; in assay [1]) was 4.4 µM each time.

What is called IC50 is the concentration at which inhibition is half-maximal. A higher IC50 goes with lower potency.
